Literature values in patent publication US20080124416A1 (RENAISSANCE HERBS, INC., priority 2006, published 2008).

Experiments:
[1] = tested on: osteoblastic MC3T3-E1 cells
[2] = tested on: cultured bone cells from the femoral tissues; settings: micromole amounts
[3] = tested on: rat cortical and trabecular bone tissues
[4] = tested on: diabetes (streptozotocin-induced); settings: oral, 50 or 100 μg/kg/day for 14 days
[5] = in vivo
[6] = in vitro
[7] = tested on: human lens epithelial (HLE) cells; settings: in vitro
hepatic fibrosis = settings: 12.5 or 25 mg/kg p.o.

Structure (SMILES): CC1=C(/C=C/C(C)=C/C=C/C(C)=C/C=C/C=C(C)/C=C/C=C(C)/C=C/C2=C(C)C[C@@H](O)CC2(C)C)C(C)(C)CCC1 [β-cryptoxanthin]
- transcriptional activity, proliferation, cell differentiation and mineralization [1]: stimulates
- alkaline phosphatase activity and calcium content [2]: significantly increases
- decrease in calcium content induced by prostaglandin E2 and parathyroid hormone [3]: completely inhibits
- osteoblast-like cell formation induced by bone-resorbing factors (mouse marrow cultures): potently inhibits
- symptoms of diabetes (serum glucose, triglycerides, calcium, body weight, bone loss) [4]: significantly attenuate

Structure (SMILES): CCCCCCCCCCCCCCCC(=O)O[C@@H]1CC(C)=C(/C=C/C(C)=C/C=C/C(C)=C/C=C/C=C(C)/C=C/C=C(C)/C=C/C2=C(C)CCCC2(C)C)C(C)(C)C1 [β-Cryptoxanthinpalmitate]
- human bioavailability of esterified vs free form [5]: comparable

Structure (SMILES): CC1=C(/C=C/C(C)=C/C=C/C(C)=C/C=C/C=C(C)/C=C/C=C(C)/C=C/C2=C(C)C[C@@H](O)CC2(C)C)C(C)(C)C[C@H](O)C1 [zeaxanthin]
- antioxidative activity against A2-PE, a pro-oxidant protein in retinal pigment cells [6]: antioxidative activity
- UVB light-induced lipid peroxidation [7]: inhibits
- TBARS, collagen deposition, 4-hydroxyproline levels, serum ALP and AST (hepatic fibrosis): significantly decreased
- activities of glutathione-S-transferase and glutathione (hepatic fibrosis): significantly increased
